One assay has as its target T1, SIK1 (Homo sapiens, UniProt P57059).
T1 construct: purchased Carna Biosciences 02-131
As to the kind of experiment: 33P radioactive kinase assay, SIK1. The format is biochemical. The method, then: (§1) The principle of the ^33P radioactive kinase assay consists in measuring the incorporated ^33P into the substrate AMARA peptide when phosphorylated by SIK1, SIK2 or SIK3 using [^33P]-g-ATP, which correlates with kinase activity.
(§2) The test compounds are prepared as a serial dilution of 10 point dose responses with 1/5 dilution steps in 100% DMSO starting from 2 mM highest concentration, diluted 1/20 in water and 5 μL is transferred to the assay plates (Greiner, Cat #651201).
(§3) 1% DMSO and 10 μM staurosporine final concentrations are used as negative and positive controls.
(§4) 11 μL of enzyme-substrate mixture is added on the assay plates. The reactions are started by adding 9 μL ATP mixture, consisting of non-labeled and ^33P-labeled ATP, on the assay plates.
(§5) The reactions are stopped by adding 25 μL phosphoric acid (150 mM) to the reactions.
(§6) The completely terminated kinase reactions are transferred using a harvester on pre-wetted UniFilter-96 plates (UniFilter-96 GF/B, PerkinElmer Inc., Cat #6005177).
(§7) After harvesting the kinase reactions, the filter plates are washed 6 times with phosphoric acid (75 mM). The back of the UniFilter-96 plates are sealed and 40 μL MicroScint-20 (PerkinElmer Inc., Cat #6013621) is added to each well. The top of the plates are sealed with TopSeal-A. Read-out is performed with a TopCount instrument (PerkinElmer Inc.).
(§8) Raw data are generated following the read-out performed on the TopCount, plotted to generate dose response curves to calculate percentage inhibition (PIN) and average IC50 for each SIK homologue which are reported in the table below.

A further assay deals with T2, SIK3 (Homo sapiens, UniProt Q9Y2K2).
T2 construct: purchased SignalChem S12-11G-100
Briefly: 33P radioactive kinase assay, SIK3. The format is biochemical. The note with it: 33P radioactive assay; AMARA 7 μM; 15 μM ATP; 80 min; average IC50. The method, then:
as §1, §2, §3, §4, §5, §6, §7, §8

In assay [1] the test system is LPS triggered IL-10 secretion in monocyte-derived macrophages. Briefly: MdM assay: LPS-triggered IL-10 (ELISA). The format is cell-based. The conditions noted are these: Macrophage; human MdM; LPS 200 ng/mL; supernatant after 2 h; maximal fold change vs LPS only, median of two or more assays; read-out: IL-10 FCmax median. How it is done: SIK inhibition inhibits TNFα and increases IL-10 release in LPS triggered monocyte-derived macrophages (MdM) and dendritic cells (MdDCs) (Clark et al. 2012; Sundberg et al. 2014; Ozanne et al. 2015). This assay evaluates illustrative compounds of the invention for their inhibition of LPS-induced TNFα and LPS triggered IL-10 secretion in monocyte-derived macrophages.
PBMCs are isolated from human blood samples (buffycoats). The buffy coat is aseptically transferred into a 50 mL Falcon tube, and diluted 1/2 in PBS. Falcon tubes are filled with 20 mL Lymphoprep™, on top of which 25 mL of the buffy coat is carefully added, tubes are centrifuged for 35 min at 400 g in temperature controlled centrifuge, without brake, at 25° C. PBMCs are aspirated from the white interface layer between sample and Lymphoprep™. PBMCs are washed five times in PBS. Cells are resuspended in RPMI 1640 complete medium supplemented with 10% FBS, 1% P/S, and cell density is determined using a hematologic analyzer (Sysmex XS-500i).
PBMCs are centrifuged at 300×g for 10 min and resuspended at a density of 1.0*10^7 cells/80 μL Miltenyi buffer (PBS, pH 7.4, 1% FBS, 2 mM EDTA).
Starting from this point of the protocol all steps are performed on ice. 20 μL of CD14+ micro-beads are added per 1.0*10^7 cells, the tube is mixed and incubated for 15 min in the fridge at 4° C. Cell suspension volume is adjusted to total volume of 100 mL using Miltenyi buffer, mixed gently and subsequently centrifuged for 10 min at 300×g. Supernatant is discarded and cell pellet is resuspended in 12 mL of Miltenyi buffer.
Four LS columns are placed in the MACS Separator (magnet) from Miltenyi Biotec, and are prewet by rinsing with 3 mL of MACS buffer per column. Three mL of cell suspension is added onto the column (max 1*10^8 of labelled cells/column), and columns are subsequently washed 3 times with 3 mL of Miltenyi buffer.
The columns are removed from the magnets, and 5 mL of Miltenyi buffer are added to the column to flush out the CD14+ fraction by pushing the plunger into the column. The flushed fractions are collected in a fresh 50 mL Falcon and volume is adjusted to 30 mL using Miltenyi buffer, cells are centrifuged for 10 min at 300×g. The obtained cell pellet is resuspended in 10 mL RPMI w/o FBS, and cell density is determined using a hematologic analyser (Sysmex XS-500i). 100 000 cells are seeded per well of a 96-well plate for differentiation to MdM in RPMI 1640 medium supplemented with 10% FBS, 1% P/S and 100 ng/mL rhM-CSF. On day 5 the medium is refreshed with 100 μL RPMI 1640 medium supplemented with 10% FBS, 1% P/S and 100 ng/mL rhM-CSF.
On day 10, MdMs are triggered and compound is added.
A compound dilution plate is made in 100% DMSO by 3-fold dilution of 10 mM stock solution. An intermediate dilution plate (10× final concentration) is made by diluting the compound dilution plate 50-fold in RPMI medium.
Medium is carefully removed from cell plates using multichannel pipette, and replaced by 80 μL fresh medium. 10 μL of the 10× final concentration compound is added to the cells and incubated for 1 hour at 37° C. before addition of trigger. No trigger conditions/trigger conditions are spiked with equal final DMSO concentrations of 0.2% DMSO. 10 μL of 10×LPS (final conc. 200 ng/mL) solution are added to all wells except for the ‘no trigger wells’ where 10 μL medium is added. Supernatant is collected after 2 h (IL-10 determination) and after 20 h (TNFα determination) of LPS triggering. […]

Molecules are shown by their SMILES.

T1 sequence (P57059 whole entry): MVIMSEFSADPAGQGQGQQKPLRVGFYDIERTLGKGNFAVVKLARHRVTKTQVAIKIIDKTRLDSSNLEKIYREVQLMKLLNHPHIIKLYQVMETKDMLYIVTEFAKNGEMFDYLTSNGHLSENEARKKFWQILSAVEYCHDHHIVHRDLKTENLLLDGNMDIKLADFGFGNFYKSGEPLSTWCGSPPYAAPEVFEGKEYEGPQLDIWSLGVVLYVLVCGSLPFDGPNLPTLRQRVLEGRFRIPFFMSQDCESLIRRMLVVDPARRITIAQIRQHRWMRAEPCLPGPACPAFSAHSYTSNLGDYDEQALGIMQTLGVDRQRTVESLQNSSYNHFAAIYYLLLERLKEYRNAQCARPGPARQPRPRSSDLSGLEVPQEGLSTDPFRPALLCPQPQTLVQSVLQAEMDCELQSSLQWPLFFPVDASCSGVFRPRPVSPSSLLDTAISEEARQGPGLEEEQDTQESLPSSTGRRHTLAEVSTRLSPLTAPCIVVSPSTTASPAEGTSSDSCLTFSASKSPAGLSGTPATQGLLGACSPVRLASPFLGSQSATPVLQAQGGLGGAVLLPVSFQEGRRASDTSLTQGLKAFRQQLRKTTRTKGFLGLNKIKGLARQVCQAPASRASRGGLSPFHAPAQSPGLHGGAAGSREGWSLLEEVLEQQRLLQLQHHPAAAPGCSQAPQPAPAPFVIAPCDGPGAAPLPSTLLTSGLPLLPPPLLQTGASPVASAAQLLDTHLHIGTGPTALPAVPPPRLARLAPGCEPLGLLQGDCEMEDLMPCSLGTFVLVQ
T2 sequence (Q9Y2K2 59-365 limits assumed): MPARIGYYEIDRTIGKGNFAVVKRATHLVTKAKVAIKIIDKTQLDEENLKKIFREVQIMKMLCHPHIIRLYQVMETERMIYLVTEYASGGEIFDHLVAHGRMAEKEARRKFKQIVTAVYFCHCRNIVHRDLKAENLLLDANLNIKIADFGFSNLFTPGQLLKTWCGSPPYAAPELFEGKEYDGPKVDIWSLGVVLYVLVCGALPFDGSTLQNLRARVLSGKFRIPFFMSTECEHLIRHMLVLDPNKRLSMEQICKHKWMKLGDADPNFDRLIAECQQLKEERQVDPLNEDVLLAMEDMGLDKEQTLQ

Turning to `COc1cc(-c2cnc3cc(C(C)(C)C#N)ccn23)cc(OC(F)F)c1C(=O)NC1CC1` [Cpd 19, 4-[7-(1-cyano-1-methyl-ethyl)imidazo[1,2-a]pyridin-3-yl]-N-cyclopropyl-2-(difluoromethoxy)-6-methoxy-benzamide], the IC50 at SIK1 was above 500 nM; on SIK3, 0.01 to 10 nM. The maximal fold induction in assay [1] is below 1.5.
On to `CCC(C)(C#N)c1ccn2c(-c3cc(OC)c(C(=O)NC4CC4)c(OC(F)F)c3)cnc2c1` (stereo not shown) [Cpd 27, 4-[7-(1-cyano-1-methyl-propyl)imidazo[1,2-a]pyridin-3-yl]-N-cyclopropyl-2-(difluoromethoxy)-6-methoxy-benzamide], for which the IC50 is above 500 nM at SIK1 and 10 to 100 nM at SIK3.
As to `COc1cc(-c2cnc3cc(C(C)(C)C#N)ccn23)cc(OC)c1C(=O)NC1CC1` [Cpd 28, 4-[7-(1-cyano-1-methyl-ethyl)imidazo[1,2-a]pyridin-3-yl]-N-cyclopropyl-2,6-dimethoxy-benzamide], the IC50 on SIK1 was above 500 nM; on SIK3, 10 to 100 nM.
In the same order, the values of `COc1cc(-c2cnc3cc(C4(C#N)CC4)ccn23)cc(OC(F)F)c1C(=O)NC1CC1` [Cpd 33, 4-[7-(1-cyanocyclopropyl)imidazo[1,2-a]pyridin-3-yl]-N-cyclopropyl-2-(difluoromethoxy)-6-methoxy-benzamide] are 100 to 500 nM and 0.01 to 10 nM.
For the molecule `COc1cc(-c2cnn3cc(C(C)(C)C#N)ccc23)cc(OC(F)F)c1C(=O)NC1CC1` [Cpd 208, 4-[6-(1-cyano-1-methyl-ethyl)pyrazolo[1,5-a]pyridin-3-yl]-N-cyclopropyl-2-(difluoromethoxy)-6-methoxy-benzamide], the maximal fold induction in assay [1] is below 1.5.
Regarding `COc1cc(-c2cnn3cc(C(C)(C)O)ccc23)cc(OC(F)F)c1C(=O)N[C@@H]1C[C@@H]1F` [Cpd 227, 2-(difluoromethoxy)-N-[(1R,2S)-2-fluorocyclopropyl]-4-[6-(1-hydroxy-1-methyl-ethyl)pyrazolo[1,5-a]pyridin-3-yl]-6-methoxy-benzamide], the maximal fold induction in assay [1] fell in the range of 1.5 to 4.5.
The same measure, in the same setting: to `COc1cc(-c2cnc3cc(C(C)(C)C#N)cnn23)cc(OC(F)F)c1C(=O)N[C@@H]1C[C@@H]1F` [Cpd 228, 4-[7-(1-cyano-1-methyl-ethyl)imidazo[1,2-b]pyridazin-3-yl]-2-(difluoromethoxy)-N-[(1R,2S)-2-fluorocyclopropyl]-6-methoxy-benzamide] belongs below 1.5.
`COc1cc(-c2cnn3cc(C(C)(C)C#N)cnc23)cc(OC(F)F)c1C(=O)N[C@@H]1C[C@@H]1F` [Cpd 231, 4-[6-(1-cyano-1-methyl-ethyl)pyrazolo[1,5-a]pyrimidin-3-yl]-2-(difluoromethoxy)-N-[(1R,2S)-2-fluorocyclopropyl]-6-methoxy-benzamide]: in assay [1], the maximal fold induction lay within 1.5 to 4.5.
Still for that read-out and setting: to `COc1cc(-c2cnn3cc(C(C)(C)CO)ccc23)cc(OC(F)F)c1C(=O)N[C@@H]1C[C@@H]1F` [Cpd 242, 2-(difluoromethoxy)-N-[(1R,2S)-2-fluorocyclopropyl]-4-[6-(2-hydroxy-1,1-dimethyl-ethyl)pyrazolo[1,5-a]pyridin-3-yl]-6-methoxy-benzamide] belongs below 1.5; to `COc1cc(-c2cnn3cc(C4(C#N)CCOCC4)ccc23)cc(OC(F)F)c1C(=O)N[C@@H]1C[C@@H]1F` [Cpd 243, 4-[6-(4-cyanotetrahydropyran-4-yl)pyrazolo[1,5-a]pyridin-3-yl]-2-(difluoromethoxy)-N-[(1R,2S)-2-fluorocyclopropyl]-6-methoxy-benzamide], below 1.5; to `COc1cc(-c2cnn3cc(C(C)(C)C#N)ccc23)cc(OC)c1C(=O)N[C@@H]1C[C@@H]1F` [Cpd 245, 4-[6-(1-cyano-1-methyl-ethyl)pyrazolo[1,5-a]pyridin-3-yl]-N-[(1R,2S)-2-fluorocyclopropyl]-2,6-dimethoxy-benzamide], below 1.5.
Still for that read-out and setting: the value for `COc1cc(-c2cnn3cc(C4(C(N)=O)CCC4)ccc23)cc(OC(F)F)c1C(=O)N[C@@H]1C[C@@H]1F` [Cpd 254, 4-[6-(1-carbamoylcyclobutyl)pyrazolo[1,5-a]pyridin-3-yl]-2-(difluoromethoxy)-N-[(1R,2S)-2-fluorocyclopropyl]-6-methoxy-benzamide] was below 1.5.
Same read-out and setting: the value for `COc1cc(-c2cnn3cc(C(C)(C)N)ccc23)cc(OC(F)F)c1C(=O)N[C@@H]1C[C@@H]1F` [Cpd 256, 4-[6-(1-amino-1-methyl-ethyl)pyrazolo[1,5-a]pyridin-3-yl]-2-(difluoromethoxy)-N-[(1R,2S)-2-fluorocyclopropyl]-6-methoxy-benzamide] was 1.5 to 4.5.
For the molecule `COc1cc(-c2cnn3cc(C4(N)CCC4)ccc23)cc(OC(F)F)c1C(=O)N[C@@H]1C[C@@H]1F` [Cpd 261, 4-[6-(1-aminocyclobutyl)pyrazolo[1,5-a]pyridin-3-yl]-2-(difluoromethoxy)-N-[(1R,2S)-2-fluorocyclopropyl]-6-methoxy-benzamide], the maximal fold induction in assay [1] was below 1.5.

For the origin of these results see patent US12391679B2, “Benzamide-substituted bicyclic imidazo- and pyrazolo-fused -pyridine, -pyrimide, and -pyridazine compounds for treatment of inflammatory diseases” (ONCO3R Therapeutics BV, priority 2019, dated 2025).
